What all share (format): cell-based
Experiment [1] has as its system mTORC1 over mTORC2. The experiment can be described thus: mTORC1 over mTORC2 selectivity by comparing pS6K1 and pAKT IC50. The following applies: by comparing pS6K1 and pAKT IC50, 90 min. In a few lines: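 MCF-7 cells were treated with compounds (0.5% final DMSO) for 90 minutes in one protocol and 2 hours in the other, then lysed. Phospho-signal in lysates was read by bead-based donor/acceptor proximity assay. pS6K1 and pAKT IC50 values were compared to judge mTORC1 over mTORC2 selectivity, at 90 min and at 24 hrs.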

Experiment [2] relates to p-p70 S6 Kinase (Thr389) in MCF-7 cells. The experiment can be described thus: AlphaLISA Ultra pS6K1 assay. The note with it: Homo sapiens, 1.5 h; MCF7 cells, 90 min. In a few lines: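 MCF-7 cells seeded 20–24 h, given fresh medium 2 h, then treated with compounds 90 min (0.5% DMSO final). Cells lysed, lysates frozen at −80 °C, then Thr389-phosphorylated S6K1 detected by AlphaLISA Ultra with acceptor beads 2 h, then donor beads 2 h.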
(In general: In Alpha technology, singlet oxygen from a donor bead excites a nearby acceptor bead.)

Experiment [3] deals with p-Akt 1/2/3 (Ser473) in MCF-7 cells. Nature of the experiment: AlphaLISA Ultra pAKT assay. The following applies: Homo sapiens, 1.5 h; MCF7 cells, 90 min. In outline: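 MCF-7 cells (16,000˜20,000 per well in 36 μL medium) were seeded in Corning 3701 plates for 20˜24 hour, refreshed with new medium for 90 minutes, then given 12 μL of 4× compound (0.5% final DMSO). Cells were lysed with 2× lysis buffer, and lysate was analyzed by AlphaLISA Ultra pAKT using acceptor and donor beads, read on an EnSpire reader.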

pIC50: −log10 of the molar value.

With `CO[C@@H]1/C(C)=C/[C@@H](C)C(=O)C[C@@H]([C@H](C)C[C@@H]2CC[C@@H](OCCO)[C@H](OC)C2)OC(=O)[C@@H]2CCCCN2C(=O)C(=O)[C@]2(O)O[C@@H](CC[C@H]2C)CC(OCCOCCOC2COC2)/C(C)=C/C=C/C=C/[C@@H](C)C[C@@H](C)C(=O)[C@@H]1OC` (stereo partly drawn) [I-80, (1R,9S,12S,15R,16E,18R,19R,21R,23S,24E,26E,28E,32S,35R)-1-hydroxy-12-[(1R)-2-[(1S,3R,4R)-4-(2-hydroxyethoxy)-3-methoxy-cyclohexyl]-1-methyl-ethyl]-18,19-dimethoxy-15,17,21,23,29,35-hexamethyl-30-[2-[2-(oxetan-3-yloxy)ethoxy]ethoxy]-11,36-dioxa-4-azatricyclo[30.3.1.0^4,9]hexatriaconta-16,24,26,28-tetraene-2,3,10,14,20-pentone], the “mTORC1 selective @ 90 min” value in experiment [1] was “Yes”. Besides, the values for the negative logarithm of the IC50 (pIC50) in experiment [2] and in experiment [3] were 7.00 to 8.00 and at most 6.00, respectively.

Regarding `COCCO[C@@H]1CC[C@@H](C[C@@H](C)[C@@H]2CC(=O)[C@H](C)/C=C(\C)[C@@H](OC)[C@@H](OC)C(=O)[C@H](C)C[C@H](C)/C=C/C=C/C=C(\C)C(OCCOCCOC3COC3)C[C@@H]3CC[C@@H](C)[C@@](O)(O3)C(=O)C(=O)N3CCCC[C@H]3C(=O)O2)C[C@H]1OC` (stereo partly drawn) [I-81, (1R,9S,12S,15R,16E,18R,19R,21R,23S,24E,26E,28E,32S,35R)-1-hydroxy-18,19-dimethoxy-12-[(1R)-2-[(1S,3R,4R)-3-methoxy-4-(2-methoxyethoxy)cyclohexyl]-1-methyl-ethyl]-15,17,21,23,29,35-hexamethyl-30-[2-[2-(oxetan-3-yloxy)ethoxy]ethoxy]-11,36-dioxa-4-azatricyclo[30.3.1.0^4,9]hexatriaconta-16,24,26,28-tetraene-2,3,10,14,20-pentone], the “mTORC1 selective @ 90 min” value in experiment [1] is given as “Yes”. The negative logarithm of the IC50 (pIC50) in experiment [2] was 7.00 to 8.00; in experiment [3], at most 6.00.

For the molecule `COCCO[C@@H]1CC[C@@H](C[C@@H](C)[C@@H]2CC(=O)[C@H](C)/C=C(\C)[C@@H](OC)[C@@H](OC)C(=O)[C@H](C)C[C@H](C)/C=C/C=C/C=C(\C)[C@H](OCCOC3COC3)C[C@@H]3CC[C@@H](C)[C@@](O)(O3)C(=O)C(=O)N3CCCC[C@H]3C(=O)O2)C[C@H]1OC` [I-82, (1R,9S,12S,15R,16E,18R,19R,21R,23S,24E,26E,28E,30R,32S,35R)-1-hydroxy-18,19-dimethoxy-12-[(1R)-2-[(1S,3R,4R)-3-methoxy-4-(2-methoxyethoxy)cyclohexyl]-1-methyl-ethyl]-15,17,21,23,29,35-hexamethyl-30-[2-(oxetan-3-yloxy)ethoxy]-11,36-dioxa-4-azatricyclo[30.3.1.0^4,9]hexatriaconta-16,24,26,28-tetraene-2,3,10,14,20-pentone], the “mTORC1 selective @ 90 min” value in experiment [1] is listed as “Yes”. For the same molecule, the pIC50 in experiment [2] is 7.00 to 8.00; in experiment [3] it was at most 6.00.

Consider `CO[C@@H]1C[C@H](C[C@@H](C)[C@@H]2CC(=O)[C@H](C)/C=C(\C)[C@@H](O)[C@@H](OC)C(=O)[C@H](C)C[C@H](C)/C=C/C=C/C=C(\C)[C@H](OC[C@@H]3COCCO3)C[C@@H]3CC[C@@H](C)[C@@](O)(O3)C(=O)C(=O)N3CCCC[C@H]3C(=O)O2)CC[C@H]1OCCO` [I-84, (1R,9S,12S,15R,16E,18R,19R,21R,23S,24E,26E,28E,30R,32S,35R)-30-[[(2S)-1,4-dioxan-2-yl]methoxy]-1,18-dihydroxy-12-[(1R)-2-[(1S,3R,4R)-4-(2-hydroxyethoxy)-3-methoxy-cyclohexyl]-1-methyl-ethyl]-19-methoxy-15,17,21,23,29,35-hexamethyl-11,36-dioxa-4-azatricyclo[30.3.1.04,9]hexatriaconta-16,24,26,28-tetraene-2,3,10,14,20-pentone], for which the “mTORC1 selective @ 90 min” value in experiment [1] is on record as “Yes”. In addition, the negative-log IC50 (pIC50) in experiment [2] is 8.00 to 9.00; in experiment [3], at most 6.00.

Regarding `CO[C@@H]1C[C@H](C[C@@H](C)[C@@H]2CC(=O)[C@H](C)/C=C(\C)[C@@H](O)[C@@H](OC)C(=O)[C@H](C)C[C@H](C)/C=C/C=C/C=C(\C)C(OCCOC3CCOCC3)C[C@@H]3CC[C@@H](C)[C@@](O)(O3)C(=O)C(=O)N3CCCC[C@H]3C(=O)O2)CC[C@H]1OP(C)(C)=O` (stereo partly drawn) [I-86, (1R,9S,12S,15R,16E,18R,19R,21R,23S,24E,26E,28E,32S,35R)-12-[(1R)-2-[(1S,3R,4R)-4-dimethylphosphoryloxy-3-methoxy-cyclohexyl]-1-methyl-ethyl]-1,18-dihydroxy-19-methoxy-15,17,21,23,29,35-hexamethyl-30-(2-tetrahydropyran-4-yloxyethoxy)-11,36-dioxa-4-azatricyclo[30.3.1.0^4,9]hexatriaconta-16,24,26,28-tetraene-2,3,10,14,20-pentone], the “mTORC1 selective @ 90 min” value in experiment [1] was “Yes”. The pIC50 in experiment [2] is above 9.00; in experiment [3], at most 6.00.

As for `CO[C@@H]1C[C@H](C[C@@H](C)[C@@H]2CC(=O)[C@H](C)/C=C(\C)[C@@H](O)[C@@H](OC)C(=O)[C@H](C)C[C@H](C)/C=C/C=C/C=C(\C)C(OCCOC3COC3)C[C@@H]3CC[C@@H](C)[C@@](O)(O3)C(=O)C(=O)N3CCCC[C@H]3C(=O)O2)CC[C@H]1O` (stereo partly drawn) [I-88, (23E,25E,27E,28E,32R,33S,34R,35R,37S,39S,41R,42S,44R,45R,54R)-44,54-dihydroxy-42-[(1R)-2-[(1S,3R,4R)-4-hydroxy-3-methoxy-cyclohexyl]-1-methyl-ethyl]-45-methoxy-32,33,34,35,46,47-hexamethyl-41-[2-(oxetan-3-yloxy)ethoxy]-65,66-dioxa-55-azatricyclohexatriaconta-23,25,27(46),28(47)-tetraene-48,49,50,51,52-pentone], the “mTORC1 selective @ 90 min” value in experiment [1] is on record as “Yes”. The values for the negative logarithm of the IC50 (pIC50) in experiment [2] and in experiment [3] were 8.00 to 9.00 and at most 6.00, respectively.

As to `CO[C@@H]1C[C@H](C[C@@H](C)[C@@H]2CC(=O)[C@H](C)/C=C(\C)[C@@H](O)[C@@H](OC)C(=O)[C@H](C)C[C@H](C)/C=C/C=C/C=C(\C)C(OCCOC3COC3)C[C@@H]3CC[C@@H](C)[C@@](O)(O3)C(=O)C(=O)N3CCCC[C@H]3C(=O)O2)CC[C@H]1OP(C)(C)=O` (stereo partly drawn) [I-89, (1R,9S,12S,15R,16E,18R,19R,21R,23S,24E,26E,28E,32S,35R)-12-[(1R)-2-[(1S,3R,4R)-4-dimethylphosphoryloxy-3-methoxy-cyclohexyl]-1-methyl-ethyl]-1,18-dihydroxy-19-methoxy-15,17,21,23,29,35-hexamethyl-30-[2-(oxetan-3-yloxy)ethoxy]-11,36-dioxa-4-azatricyclo[30.3.1.04,9]hexatriaconta-16,24,26,28-tetraene-2,3,10,14,20-pentone], the “mTORC1 selective @ 90 min” value in experiment [1] is “Yes”. Also, the pIC50 was 8.00 to 9.00 in experiment [2] and at most 6.00 in experiment [3].

Regarding `CNCCOCCOC1C[C@@H]2CC[C@@H](C)[C@@](O)(O2)C(=O)C(=O)N2CCCC[C@H]2C(=O)O[C@H]([C@H](C)C[C@@H]2CC[C@@H](OC)[C@H](OC)C2)CC(=O)[C@H](C)/C=C(\C)[C@@H](OC)[C@@H](OC)C(=O)[C@H](C)C[C@H](C)/C=C/C=C/C=C/1C` (stereo partly drawn) [I-90, (24E,26E,28E,29E,35R,36S,37R,38R,40S,42S,45S,46R,47R,56R)-45-[(1R)-2-[(1S,3R,4R)-3,4-dimethoxycyclohexyl]-1-methyl-ethyl]-56-hydroxy-46,47-dimethoxy-35,36,37,38,48,49-hexamethyl-44-[2-[2-(methylamino)ethoxy]ethoxy]-65,66-dioxa-58-azatricyclohexatriaconta-24,26,28(48),29(49)-tetraene-50,51,52,53,54-pentone], the “mTORC1 selective @ 90 min” value in experiment [1] was “Yes”. Moreover, the negative-log IC50 (pIC50) was 7.00 to 8.00 in experiment [2] and at most 6.00 in experiment [3].

For the molecule `CO[C@@H]1C[C@H](C[C@@H](C)[C@@H]2CC(=O)[C@H](C)/C=C(\C)[C@@H](O)[C@@H](OC)C(=O)[C@H](C)C[C@H](C)/C=C/C=C/C=C(\C)C(OCCOC3COC3)C[C@@H]3CC[C@@H](C)[C@@](O)(O3)C(=O)C(=O)N3CCCC[C@H]3C(=O)O2)CC[C@H]1OCCCN1CC2(COC2)C1` (stereo partly drawn) [I-91, (27E,29E,31E,32E,39R,40S,41R,42R,44S,46S,49S,51R,52R,62R)-51,62-dihydroxy-52-methoxy-49-[(1R)-2-[(1S,3R,4R)-3-methoxy-4-[3-(2-oxa-6-azaspiro[3.3]heptan-6-yl)propoxy]cyclohexyl]-1-methyl-ethyl]-39,40,41,42,53,54-hexamethyl-48-[2-(oxetan-3-yloxy)ethoxy]-74,75-dioxa-63-azatricyclohexatriaconta-27,29,31(53),32(54)-tetraene-55,56,57,58,59-pentone], in experiment [1], the “mTORC1 selective @ 90 min” value is recorded as “Yes”. Moreover, the pIC50 is 8.00 to 9.00 in experiment [2] and at most 6.00 in experiment [3].

As for `CO[C@@H]1C[C@H](C[C@@H](C)[C@@H]2CC(=O)[C@H](C)/C=C(\C)[C@@H](O)[C@@H](OC)C(=O)[C@H](C)C[C@H](C)/C=C/C=C/C=C(\C)[C@H](OCC3COCCO3)C[C@@H]3CC[C@@H](C)[C@@](O)(O3)C(=O)C(=O)N3CCCC[C@H]3C(=O)O2)CC[C@H]1OCCCO` (stereo partly drawn) [I-92, (24E,26E,28E,29E,35R,36S,37R,38R,40S,42S,44R,45S,47R,48R,57R)-44-(1,4-dioxan-2-ylmethoxy)-47,57-dihydroxy-45-[(1R)-2-[(1S,3R,4R)-4-(3-hydroxypropoxy)-3-methoxy-cyclohexyl]-1-methyl-ethyl]-48-methoxy-35,36,37,38,49,50-hexamethyl-69,70-dioxa-58-azatricyclohexatriaconta-24,26,28(49),29(50)-tetraene-51,52,53,54,55-pentone], the “mTORC1 selective @ 90 min” value in experiment [1] is “Yes”. Besides, the figures for the pIC50 in experiment [2] and in experiment [3] were 7.00 to 8.00 and at most 6.00, respectively.

As usually defined, the pIC50 is the negative decadic logarithm of the IC50, by convention in mol/L.

(Values after patent publication US20220267352A1, “RAPAMYCIN ANALOGS AND USES THEREOF” (Anakuria Therapeutics, Inc., priority 2021, published 2022).)
